Test results: patent publication US20250025443A1, “COMPOUNDS AND METHODS FOR TREATING CORONA VIRUSES” (CLEAR CREEK BIO, INC., priority 2021, published 2025)

biological target: SARS-CoV-2 Papain-Like Protease (PLpro) (Severe acute respiratory syndrome coronavirus 2 (2019-nCoV) (SARS-CoV-2), UniProt P0DTD1); test: biochemical; details: PLpro enzymatic fluorescence assay; class symbols; read-out: PLpro IC50

| SMILES | IC50 |
| --- | --- |
| Cc1ccc(OC[C@@H]2CCN2C)cc1C(=O)NC1(c2cc(-c3ccc4ncnn4c3)cc3ncccc23)CC1 [Compound 700, (S)—N-(1-(7-([1,2,4]Triazolo[1,5-a]pyridin-6-yl)quinolin-5-yl)cyclopropyl)-2-methyl-5-((1-methylazetidin-2-yl)methoxy)benzamide] | < 100 nM |
| Cc1ccc(OC[C@@H]2CCN2)cc1C(=O)NC1(c2cc(-c3ncn4ccccc34)cc3ncccc23)CC1 [Compound 733, (S)-5-(Azetidin-2-ylmethoxy)-N-(1-(7-(imidazo[1,5-a]pyridin-1-yl)quinolin-5-yl)cyclopropyl)-2-methylbenzamide] | < 100 nM |
| [2H]C1([2H])C([2H])([2H])C1(NC(=O)c1cc(OC[C@@H]2CCN2C)ccc1C)c1cc(OC)cc2ncccc12 [Compound 794, (S)-N-(1-(7-Methoxyquinolin-5-yl)cyclopropyl-2,2,3,3-d4)-2-methyl-5-((1-methylazetidin-2-yl)methoxy)benzamide] | < 100 nM |
| Cc1ccc(OC[C@@H](C)N)cc1C(=O)NC1(c2cc(-c3cccs3)cc3ccccc23)CC1 [Compound 543, (R)-5-(2-Aminopropoxy)-2-methyl-N-(1-(3-(thiophen-2-yl)naphthalen-1-yl)cyclopropyl)benzamide] | < 100 nM |
| Cc1ccc(OC[C@@H]2CCN2C)cc1C(=O)NC1(c2cc(-c3cc(Cl)cs3)cc3ncccc23)CC1 [Compound 632, (S)-N-(1-(7-(4-Chlorothiophen-2-yl)quinolin-5-yl)cyclopropyl)-2-methyl-5-((1-methylazetidin-2-yl)methoxy)benzamide] | < 100 nM |
| C=Cc1cc(C2(NC(=O)c3cc(OC[C@@H]4CCCN4C)ccc3C)CC2)c2cccnc2c1 [Compound 717, (S)-2-Methyl-5-((1-methylpyrrolidin-2-yl)methoxy)-N-(1-(7-vinylquinolin-5-yl)cyclopropyl)benzamide] | < 100 nM |
| Cc1ccc(O[C@@H]2CCCC[C@H]2N)cc1CNC1(c2cccc3ccccc23)CC1 (single isomer, unassigned) [Compound 429] | 100 to 1000 nM |
| Cc1ccc(-c2cc(C3(NC(=O)c4cc(OCC(C)N)ccc4C)CC3)c3ccccc3c2)s1 (centres unmarked) [Compound 479, 5-(2-Aminopropoxy)-2-methyl-N-(1-(3-(5-methylthiophen-2-yl)naphthalen-1-yl)cyclopropyl)benzamide] | < 100 nM |
| CCc1cc(C2(NC(=O)c3cc(OC[C@@H]4CCN4)ccc3C)CC2)c2cccnc2c1 [Compound 677, (S)-5-(Azetidin-2-ylmethoxy)-N-(1-(7-ethylquinolin-5-yl)cyclopropyl)-2-methylbenzamide] | < 100 nM |
| Cc1ccc(OC[C@@H]2CCN2)cc1C(=O)NC1(c2cc(-c3cc[nH]n3)cc3ncccc23)CC1 [Compound 636, (S)-N-(1-(7-(1H-Pyrazol-3-yl)quinolin-5-yl)cyclopropyl)-5-(azetidin-2-ylmethoxy)-2-methylbenzamide] | < 100 nM |
| Cc1ccc(OC[C@@H]2CCN2C)cc1C(=O)NC1(c2cc(-c3cc4ccccc4s3)cc3ncccc23)CC1 [Compound 621, (S)-N-(1-(7-(Benzo[b]thiophen-2-yl)quinolin-5-yl)cyclopropyl)-2-methyl-5-((1-methylazetidin-2-yl)methoxy)benzamide] | < 100 nM |
| Cc1ccc(OC[C@@H]2CCN2C)cc1C(=O)NC1(c2cc(-c3sccc3Cl)cc3ncccc23)CC1 [Compound 668, (S)-N-(1-(7-(3-Chlorothiophen-2-yl)quinolin-5-yl)cyclopropyl)-2-methyl-5-((1-methylazetidin-2-yl)methoxy)benzamide] | < 100 nM |

same assay, conditions: SARS-CoV-2 PLpro enzymatic fluorescence assay; read-out: PLpro IC50

| SMILES | IC50 |
| --- | --- |
| CN[C@@H](C)COc1ccc(C)c(C(=O)NC2(c3cc(OC)cc4ncccc34)CC2)c1 [Compound 560, (S)-N-(1-(7-Methoxyquinolin-5-yl)cyclopropyl)-2-methyl-5-(2-(methylamino)propoxy)benzamide] | < 100 nM |
| CCS(=O)(=O)c1cc(C2(NC(=O)c3cc(OCCN(C)C)ccc3C)CC2)c2ccccc2c1 [Compound 471, 5-(2-(Dimethylamino)ethoxy)-N-(1-(3-(ethylsulfonyl)naphthalen-1-yl)cyclopropyl)-2-methylbenzamide] | 100 to 1000 nM |
| Cc1cnc(OCCN(C)C)nc1C(=O)NC1(c2cccc3ccccc23)CC1 [Compound 350, 2-(2-(Dimethylamino)ethoxy)-5-methyl-N-(1-(naphthalen-1-yl)cyclopropyl)pyrimidine-4-carboxamide] | 1000 to 5000 nM |
| Cc1ccc(OCCN(C)C)cc1C(=O)NC1(c2ccccc2OCc2ccccc2)CC1 [Compound 327, N-(1-(2-(Benzyloxy)phenyl)cyclopropyl)-5-(2-(dimethylamino)ethoxy)-2-methylbenzamide] | 1000 to 5000 nM |
| Cc1ccc(OC[C@@H]2CCN2C)cc1C(=O)NC1(c2cc(N)cc3ncccc23)CC1 [Compound 729, (S)-N-(1-(7-Aminoquinolin-5-yl)cyclopropyl)-2-methyl-5-((1-methylazetidin-2-yl)methoxy)benzamide] | < 100 nM |
| Cc1ccc(OCCN(C)C)cc1C(=O)NC1(c2ccccc2F)CC1 [Compound 272, 5-(2-(Dimethylamino)ethoxy)-N-(1-(2-fluorophenyl)cyclopropyl)-2-methylbenzamide] | > 5000 nM |
| Cc1ccc(CCC2CCN2)cc1C(=O)NC1(c2cccc3ccccc23)CC1 (centres unmarked) [Compound 449, 5-(2-(Azetidin-2-yl)ethyl)-2-methyl-N-(1-(naphthalen-1-yl)cyclopropyl)benzamide] | < 100 nM |
| COc1cc(C2(NC(=O)c3cc(OCC(C)N)ccc3C)CC2)c2ccccc2c1 (centres unmarked) [Compound 445, 5-(2-Aminopropoxy)-N-(1-(3-methoxynaphthalen-1-yl)cyclopropyl)-2-methylbenzamide] | < 100 nM |
| Cc1cc2cccnc2cc1C(=O)N[C@H](C)c1cccc(-c2ccc(CN[C@H]3CC[C@@H](O)C3)s2)c1 [Compound 154, N-((R)-1-(3-(5-((((1S,3R)-3-Hydroxycyclopentyl)amino)methyl)thiophen-2-yl)phenyl)ethyl)-6-methylquinoline-7-carboxamide] | 1000 to 5000 nM |
| Cc1nc2cccc(C3(NC(=O)c4cc(OCCN(C)C)ccc4C)CC3)c2s1 [Compound 403, 5-(2-(Dimethylamino)ethoxy)-2-methyl-N-(1-(2-methylbenzo[d]thiazol-7-yl)cyclopropyl)benzamide] | 100 to 1000 nM |
| Cc1ccc(OCC(C)N)cc1C(=O)NC1(c2cccc3ccccc23)CC1 (centres unmarked) [Compound 324, 5-(2-Aminopropoxy)-2-methyl-N-(1-(naphthalen-1-yl)cyclopropyl)benzamide] | < 100 nM |
| Cc1ccc(OCCN(C)C)cc1C(=O)NC1(c2cccc(-c3ccccc3)c2)CC1 [Compound 291, N-(1-([1,1′-Biphenyl]-3-yl)cyclopropyl)-5-(2-(dimethylamino)ethoxy)-2-methylbenzamide] | 100 to 1000 nM |
| Cc1ccc(COC2CNC2)cc1C(=O)NC1(c2cccc3ccccc23)CC1 [Compound 435, 5-((Azetidin-3-yloxy)methyl)-2-methyl-N-(1-(naphthalen-1-yl)cyclopropyl)benzamide] | 100 to 1000 nM |
| Cc1ccc(NC2CNC2)cc1C(=O)NCc1ccc(-c2ccc(CN3CCCC3)s2)cc1 [Compound 116, 5-(Azetidin-3-ylamino)-2-methyl-N-(4-(5-(pyrrolidin-1-ylmethyl)thiophen-2-yl)benzyl)benzamide] | > 5000 nM |
